Measured values taken from patent US11667661B2, “Benzimidazole derivatives, preparation method thereof and use thereof as anti-cancer agent comprising the same” (BIOMETRIX TECHNOLOGY INC, priority 2020, dated 2023).
Entries after “also recorded” stand apart in the source; their conditions may differ.

How the values were obtained:
[1] = test system: human lung cancer cell line A549, cervical cancer cell line Hela, colorectal cancer cell line HT-29; assay: Cancer cell line growth inhibition test (WST-8 cell viability, 72 h); assay type: cell-based; conditions: for Cancer Cell line growth inhibition test: relative evaluation compared to doxorubicin
Experimental: A human lung cancer cell line A549, a cervical cancer cell line Hela, and a colorectal cancer cell line HT-29 were adopted from the Korea Cell Line Bank (KCLB, Seoul, Korea) and cultured in a culture medium.
In a humidified cell culture incubator containing 5% CO2; at 37° C. using a DMEM and a 10% culture flask, fetal bovine serum (FBS), 0.1 mM MEM non-essential amino acid (NEAA), 2 mM L-glutamine, and 1% penicillin-streptomycin were trypsinized every 2 to 3 days according to the instructions provided by the KCLB to subculture the cells. The culture was cultured until reached 80% to 90% of confluence, and the cells were successively transferred to a culture flask for a cancer cell line growth inhibition test.
A cancer cell line, a human lung cancer cell line A549, a cervical cancer cell line Hela, and a colorectal cancer cell line HT-29 to be tested were seeded in a 96-well plate at about 10,000 cells per well.
After incubation, the medium was removed and the cell viability in each well was measured using a WST-8 cell viability assay kit (Quanti-Max™, BIOMAX) and according to a procedure instructed by a manufacturer.
The analysis used a principle that dehydrogenase of living cells decomposed tetrazolium salt to generate formazan, and through this, the living cells were quantitatively evaluated.
Reduced formazan salt was soluble in a cell culture medium and an amount of formazan was directly proportional to the number of living cells (Slater, T. et al. (1963) Biochem. Biophys. Acta 77:383. van de Loosdrecht, A. A., et al. J. Immunol. Methods 174: 311-320, 1994. Alley, M. C., et al. Cancer Res. 48: 589-601, 1988.).

[2] = test system: normal lung cell line MRC-5 and normal colon CCD-18Co cell line; assay: Toxicity test in normal cell line (WST-8 cell viability, 72 h); assay type: cell-based; conditions: for Normal cell line toxicity test: relative evaluation compared to doxorubicin

| Substance | Cancer Cell line growth inhibition test [1] | cancer cell line growth inhibition efficiency ([1]; FIG. 1, A549, Hela, HT-29, 0-100 μM, 72 hours, versus albendazole, fenbendazole, doxorubicin) | toxicity to the normal cell lines ([2]; FIG. 2, MRC-5, CCD-18Co, 0-100 μM, 72 hours, compared to albendazole, fenbendazole, and doxorubicin) | Normal cell line toxicity test [2] |
| --- | --- | --- | --- | --- |
| Fenbendazole-1,2,3,4-Tetra-β-D-fructose [FB-2] | AA (AA represents equal (1 to 2 times)) |  |  |  |
| albendazole-1,2,3,4-Tetra-β-D-glucose [AL-1] | AA (AA represents equal (1 to 2 times)) | most excellent; also recorded: very excellent | very weak | AA (AA represents little toxicity ( 1/10 times)) |
| albendazole-1,2,3,4-Tetra-β-D-fructose [AL-2] | AA (AA represents equal (1 to 2 times)) |  |  | AA (AA represents little toxicity ( 1/10 times)) |
| Fenbendazole-1,2,3,4-Tetra-β-D-glucose [FB-1] | AA (AA represents equal (1 to 2 times)) |  |  |  |
